These are literature values, as cited in patent US20120213707A1, “Riboflavin Based Aerosol and Use as Placebo in Trials” (MPEX PHARMACEUTICALS, INC., priority 2009, published 2012).

This data set relates to men and women with a history of recurrent migraine headaches. The following applies: cited from earlier work.

In the case of `Cc1cc2nc3c(=O)[nH]c(=O)nc-3n(C[C@H](O)[C@H](O)[C@H](O)CO)c2cc1C` [riboflavin], the “median migraine attack frequency” value (400 mg of riboflavin daily for three months, 23 patients, Boehnke 2004) was “reduction in median migraine attack frequency”. Besides, the “migraine attack frequency and number of headache days versus placebo” value (400 mg of riboflavin/day for three months, 54 men and women, Schoenen 1998) was “significantly better than placebo”. Where the note is “high-dose riboflavin, Sandor 2000”, the “clinical outcome in migraine” value is reported as “clinical improvement”.
